Results reported in EP0088621A2, “Compositions for use in accelerating onset of sleep” (MASSACHUSETTS INSTITUTE OF TECHNOLOGY, priority 1982, dated 1983).

Set-up: species or system Normal adult volunteers
Conditions: in vivo
Description: Normal adult volunteers consumed 1 g of tryptophan; with or without 10 g of glucose; blood samples were assayed for tryptophan, LNAA, and their ratio after various intervals. Control subjects received only the tryptophan. The results are shown in Table I, 1 hour after administration.

For OC[C@H]1OC(O)[C@H](O)[C@@H](O)[C@@H]1O (stereo partly shown) [glucose], the “increase of the plasma tryptophan/LNAA ratio by glucose” value was 40-50%.
